Patent US12427192B2, “Water soluble adjuvant and composition containing same” (Sumitomo Pharma Co., Ltd., priority 2019, dated 2025)

Legend:
[1] = test system: HLA-A*02:01 transgenic mouse; assay: Test 15: in vivo adjuvant activity, cocktail vaccine j (hydrogel formulation), IFNγ ELISPOT; details: added to cocktail vaccine j (hydrogel formulation); 0.4 nmol per body, twice; FIG. 17 and 18
Experimental: (§1) Evaluation of In Vivo Adjuvant Activity in HLA-A*02:01 Transgenic Mouse
The in vivo adjuvant activity of the compound of Example 1 was evaluated in the following procedure. To a vaccine (hydrogel formulation) comprising Compound of formula 4 prepared in Reference example 8 and Peptide SEQ ID No. 3 prepared in Reference example 3 (hereinafter, referred to as “cocktail vaccine j”) was added the compound prepared in Example 1 to prepare a vaccine. The vaccine was administered to a HLA-A*02:01 transgenic mouse, and the adjuvant activity of the vaccine was evaluated by the method of testing antigen-specific CTL induction.
For example, the above hydrogel formulation was prepared as follows. Compound of formula 4, Peptide SEQ ID No. 3, and polyoxyethylene(196)polyoxypropylene(67) glycol were mixed with pH 2.5 buffer (10 mM tartaric acid) to adjust each concentration to 1.5 mg/mL, 1.125 mg/mL, and 200 mg/mL, respectively. The mixture was […] to give a hydrogel formulation, cocktail vaccine j. The amount of the preparation was adjusted as appropriate.
Cocktail vaccine j was injected to mice intradermally at the tail base area in an amount for administering 300 μg of Compound of formula 4 per body and 225 μg of Peptide SEQ ID No. 3 per body. […] Then, after removal of the supernatant from the wells, stained spots on the ELISPOT plate were counted.

[2] = test system: HLA-A*02:01 transgenic mouse; assay: Test 13: in vivo adjuvant activity, cocktail vaccine h (emulsified composition 3), IFNγ ELISPOT; details: added to cocktail vaccine h (emulsified composition 3); 0.04 nmol per body, twice; FIG. 14
Experimental: as §1
The in vivo adjuvant activity of the compound of Example 1 was evaluated in the following procedure. To a cocktail vaccine (emulsified composition 3) comprising Compound of formula 4 prepared in Reference example 8 and Peptide SEQ ID No. 3 prepared in Reference example 3 (hereinafter, referred to as “cocktail vaccine h”) was added the compound prepared in Example 1 to prepare a vaccine. The vaccine was administered to a HLA-A*02:01 transgenic mouse, and the adjuvant activity of the vaccine was evaluated by the method of testing antigen-specific CTL induction.
For example, the above emulsified composition 3 was prepared as follows. 95.8% (w/w) of isopropyl myristate, 3% (w/w) of PEG-30 dipolyhydroxy stearate, and 1.2% (w/w) of polysorbate 80 were mixed to prepare an oil-phase mixture. The amount of the preparation was adjusted as appropriate. Compound of formula 4 and Peptide SEQ ID No. 3 were mixed with pH 2.5 buffer (10 mM tartaric acid, 10% trehalose) to adjust each concentration to 3 mg/mL and 2.25 mg/mL, respectively. The prepared peptide dilution was mixed with an equal volume of the oil-phase mixture to give an emulsified product, cocktail vaccine h. […] Then, after removal of the supernatant from the wells, stained spots on the ELISPOT plate were counted.

[3] = test system: HLA-A*02:01 transgenic mouse; assay: Test 9: in vivo adjuvant activity, cocktail vaccine b, IFNγ ELISPOT; details: added to cocktail vaccine b; Peptide SEQ ID No. 1 or SEQ ID No. 4; 0.4 nmol per body, twice; FIG. 6 and 7
Experimental: as §1
The in vivo adjuvant activity of the compounds prepared in Examples 8, 9, and 10 and the compound prepared in Reference example 12 was evaluated in the following procedure. To cocktail vaccine b comprising Compound of formula 4 prepared in Reference example 8 and Peptide SEQ ID No. 3 prepared in Reference example 3 with Montanide ISA51 VG was added the compound prepared in Example 8, 9, or 10, or the compound prepared in Reference example 12 to prepare each vaccine. The vaccine was administered to a HLA-A*02:01 transgenic mouse, and the adjuvant activity of each vaccine was evaluated by the method of testing antigen-specific CTL induction.
Specifically, Compound of formula 4 and Peptide SEQ ID No. 3 were dissolved in DMSO, and then diluted with water for injection to concentrations of Compound of formula 4 of 3 mg/mL and Peptide SEQ ID No. 3 of 2.25 mg/mL. The diluted peptide solution was mixed and emulsified with an equal volume of Montanide ISA 51 VG to prepare cocktail vaccine b. Cocktail vaccine b was injected to mice intradermally at the tail base area in an amount for administering 300 μg of Compound of formula 4 per body and 225 μg of Peptide SEQ ID No. 3 per body. Or, in the step of preparing cocktail vaccine b, the compound prepared in Example 8, 9, or 10, or the compound prepared in Reference example 12 was added to the diluted peptide solution to prepare a vaccine, and the prepared vaccine was injected to mice intradermally at the tail base area in an amount for administering 300 μg of Compound of formula 4 per body, 225 μg of Peptide SEQ ID No. 3 per body, and 0.4 nmol of the compound prepared in Example 8, 9, or 10, or the compound prepared in Reference example 12 per body. The administrations were done twice, which had one week interval. One week after the final administration, the mice were sacrificed with CO2 gas. Splenocytes were harvested from spleens removed from the mice. Like Test 4, Peptide (SEQ ID No. 1 or SEQ ID No. 4) was added to the splenocyte-containing ELISPOT plate at a final concentration of 10 μg/ml, and the plate was incubated overnight at 37° C. under an atmosphere of 5% CO2 to re-stimulate the peptide in vitro. Then, after removal of the supernatant from the wells, stained spots on the ELISPOT plate were counted.

SMILES	CTL counts responsive to Peptide SEQ ID No. 1 or SEQ ID No. 4 compared with adding no compound [1]	CTL counts responsive to Peptide SEQ ID No. 1 compared with adding no compound [2]	CTL counts responsive to the peptide compared with adding no compound [3]
CCCCCNc1nc(N)nc(C)c1Cc1ccc(CN(C)CCOCCOCCOCCOCCO)cc1OC [Example 1, 1-(4-{[2-amino-4-methyl-6-(pentylamino)pyrimidin-5-yl]methyl}-3-methoxyphenyl)-2-methyl-5,8,11,14-tetraoxa-2-azahexadecan-16-ol·trifluoroacetate]	more	more	–
CCCCCNc1nc(N)nc(C)c1Cc1ccc(CNC)cc1OC [Reference example 12, 5-({2-methoxy-4-[(methylamino)methyl]phenyl}methyl)-6-methyl-N^4-pentylpyrimidine-2,4-diamine, reference compound]	–	–	more
